“And” between values parts separate entries of the source, which are not always exact repeats. Equal entries are not always repeated. The source made the active and inactive calls. How the calls were made is not given here.

Experimental findings from PubChem BioAssay AID1745844 (Carcinogenic Potency Database (CPDB), 2022) are described below.

In the data set the test system is rodent lifetime carcinogenesis bioassay, tumor incidence TD50. The experiment in a line: carcinogenic potency in animals, long-term in vivo studies, CPDB compilation (AID 1745844).
Setting [1] is: rat, strain Sprague-Dawley, females, in feed, site: any site (literature study), lesion: several types, types named in the paper, dosed 46 weeks, study length 66 weeks.
Setting [2] is: rat, strain Sprague-Dawley, females, in feed, site: mammary gland, lesion: adenocarcinoma, dosed 46 weeks, study length 66 weeks.
Setting [3] is: rat, strain Sprague-Dawley, females, in feed, site: mammary gland, lesion: several types, types named in the paper, dosed 46 weeks, study length 66 weeks.

For the compound `FC(F)=C(F)F`, the TD50 is, setting by setting: (mouse, strain B6C3F1, females, inhaled, site: Harderian gland, lesion: adenoma, dosed 95 weeks, study length 95 weeks) 1470 mg/kg/day; (mouse, strain B6C3F1, females, inhaled, site: all sites + liver, lesion: histiocytic sarcoma + hemangioma + hemangiosarcoma + hepatocellular adenoma + hepatocellular carcinoma, dosed 95 weeks, study length 95 weeks) 54 mg/kg/day; (mouse, strain B6C3F1, females, inhaled, site: all sites, lesion: hemangioma + hemangiosarcoma, dosed 95 weeks, study length 95 weeks) 61.3 mg/kg/day; (mouse, strain B6C3F1, females, inhaled, site: all sites, lesion: hemangioma, dosed 95 weeks, study length 95 weeks) 835 mg/kg/day; (mouse, strain B6C3F1, females, inhaled, site: all sites, lesion: hemangiosarcoma, dosed 95 weeks, study length 95 weeks) 66.5 mg/kg/day; (mouse, strain B6C3F1, females, inhaled, site: all sites, lesion: histiocytic sarcoma, dosed 95 weeks, study length 95 weeks) 176 mg/kg/day. Further, the TD50 (mouse, strain B6C3F1, females, inhaled, site: any site (literature study), lesion: several types, types named in the paper, dosed 95 weeks, study length 95 weeks) was determined as 48.4 mg/kg/day; the TD50 (mouse, strain B6C3F1, females, inhaled, site: liver, lesion: hemangioma + hemangiosarcoma, dosed 95 weeks, study length 95 weeks) was 61.3 mg/kg/day; the TD50 (mouse, strain B6C3F1, females, inhaled, site: liver, lesion: hemangioma, dosed 95 weeks, study length 95 weeks) was 530 mg/kg/day; the TD50 (mouse, strain B6C3F1, females, inhaled, site: liver, lesion: hemangiosarcoma, dosed 95 weeks, study length 95 weeks) is 66.5 mg/kg/day; the TD50 (mouse, strain B6C3F1, females, inhaled, site: liver, lesion: hepatocellular adenoma + hepatoblastoma + hepatocellular carcinoma, dosed 95 weeks, study length 95 weeks) amounted to 63.3 mg/kg/day; the TD50 (mouse, strain B6C3F1, females, inhaled, site: liver, lesion: hepatocellular adenoma + hepatocellular carcinoma, dosed 95 weeks, study length 95 weeks) was 63.3 mg/kg/day. The TD50 was 217 mg/kg/day (mouse, strain B6C3F1, females, inhaled, site: liver, lesion: hepatocellular adenoma, dosed 95 weeks, study length 95 weeks); 80.8 mg/kg/day (mouse, strain B6C3F1, females, inhaled, site: liver, lesion: hepatocellular carcinoma, dosed 95 weeks, study length 95 weeks); 1640 mg/kg/day (mouse, strain B6C3F1, females, inhaled, site: lung, lesion: alveolar/bronchiolar adenoma + alveolar/bronchiolar carcinoma + carcinoma, dosed 95 weeks, study length 95 weeks); 1010 mg/kg/day (mouse, strain B6C3F1, females, inhaled, site: lung, lesion: alveolar/bronchiolar adenoma + alveolar/bronchiolar carcinoma, dosed 95 weeks, study length 95 weeks); 1450 mg/kg/day (mouse, strain B6C3F1, females, inhaled, site: pituitary gland, lesion: pars distalis adenoma, dosed 95 weeks, study length 95 weeks); 1270 mg/kg/day (mouse, strain B6C3F1, males, inhaled, site: Harderian gland, lesion: adenoma + carcinoma, dosed 95 weeks, study length 95 weeks). The TD50 (mouse, strain B6C3F1, males, inhaled, site: Harderian gland, lesion: adenoma, dosed 95 weeks, study length 95 weeks) stood at 1390 mg/kg/day; the TD50 (mouse, strain B6C3F1, males, inhaled, site: all sites + liver, lesion: histiocytic sarcoma + hemangioma + hemangiosarcoma + hepatocellular adenoma + hepatocellular carcinoma, dosed 95 weeks, study length 95 weeks) was determined as 71.6 mg/kg/day; the TD50 (mouse, strain B6C3F1, males, inhaled, site: all sites, lesion: hemangioma + hemangiosarcoma, dosed 95 weeks, study length 95 weeks) amounted to 88.3 mg/kg/day; the TD50 (mouse, strain B6C3F1, males, inhaled, site: all sites, lesion: hemangioma, dosed 95 weeks, study length 95 weeks) was determined as 297 mg/kg/day; the TD50 (mouse, strain B6C3F1, males, inhaled, site: all sites, lesion: hemangiosarcoma, dosed 95 weeks, study length 95 weeks) worked out at 109 mg/kg/day; the TD50 (mouse, strain B6C3F1, males, inhaled, site: all sites, lesion: histiocytic sarcoma, dosed 95 weeks, study length 95 weeks) was 429 mg/kg/day. Moreover, the TD50 was 69.9 mg/kg/day (mouse, strain B6C3F1, males, inhaled, site: any site (literature study), lesion: several types, types named in the paper, dosed 95 weeks, study length 95 weeks); 87 mg/kg/day (mouse, strain B6C3F1, males, inhaled, site: liver, lesion: hemangioma + hemangiosarcoma, dosed 95 weeks, study length 95 weeks); 308 mg/kg/day (mouse, strain B6C3F1, males, inhaled, site: liver, lesion: hemangioma, dosed 95 weeks, study length 95 weeks); 108 mg/kg/day (mouse, strain B6C3F1, males, inhaled, site: liver, lesion: hemangiosarcoma, dosed 95 weeks, study length 95 weeks); 91 mg/kg/day (mouse, strain B6C3F1, males, inhaled, site: liver, lesion: hepatocellular adenoma + hepatoblastoma + hepatocellular carcinoma, dosed 95 weeks, study length 95 weeks); 91 mg/kg/day (mouse, strain B6C3F1, males, inhaled, site: liver, lesion: hepatocellular adenoma + hepatocellular carcinoma, dosed 95 weeks, study length 95 weeks). For the same compound, the TD50 reads like this: (mouse, strain B6C3F1, males, inhaled, site: liver, lesion: hepatocellular adenoma, dosed 95 weeks, study length 95 weeks) 222 mg/kg/day; (mouse, strain B6C3F1, males, inhaled, site: liver, lesion: hepatocellular carcinoma, dosed 95 weeks, study length 95 weeks) 190 mg/kg/day; (mouse, strain B6C3F1, males, inhaled, site: lung, lesion: alveolar/bronchiolar adenoma + alveolar/bronchiolar carcinoma + carcinoma, dosed 95 weeks, study length 95 weeks) 216 mg/kg/day; (mouse, strain B6C3F1, males, inhaled, site: lung, lesion: alveolar/bronchiolar adenoma + alveolar/bronchiolar carcinoma, dosed 95 weeks, study length 95 weeks) 220 mg/kg/day; (mouse, strain B6C3F1, males, inhaled, site: lung, lesion: alveolar/bronchiolar adenoma, dosed 95 weeks, study length 95 weeks) 348 mg/kg/day; (mouse, strain B6C3F1, males, inhaled, site: lung, lesion: alveolar/bronchiolar carcinoma + carcinoma, dosed 95 weeks, study length 95 weeks) 830 mg/kg/day. The TD50 runs as follows: (mouse, strain B6C3F1, males, inhaled, site: thyroid gland, lesion: follicular-cell adenoma + follicular-cell carcinoma, dosed 95 weeks, study length 95 weeks) 988 mg/kg/day; (mouse, strain B6C3F1, males, inhaled, site: thyroid gland, lesion: follicular-cell adenoma, dosed 95 weeks, study length 95 weeks) 1440 mg/kg/day; (rat, strain Fischer 344, females, inhaled, site: all sites + liver, lesion: mononuclear-cell leukemia + hemangiosarcoma + hepatocellular adenoma + hepatocellular carcinoma, dosed 103 weeks, study length 104 weeks) 56.3 mg/kg/day; (rat, strain Fischer 344, females, inhaled, site: all sites, lesion: hemangiosarcoma, dosed 103 weeks, study length 104 weeks) 886 mg/kg/day; (rat, strain Fischer 344, females, inhaled, site: all sites, lesion: mononuclear-cell leukemia, dosed 103 weeks, study length 104 weeks) 228 mg/kg/day; (rat, strain Fischer 344, females, inhaled, site: any site (literature study), lesion: several types, types named in the paper, dosed 103 weeks, study length 104 weeks) 287 mg/kg/day. Besides, the TD50 was 958 mg/kg/day and 1310 mg/kg/day (rat, strain Fischer 344, females, inhaled, site: kidney, lesion: tubule adenoma + tubule carcinoma, dosed 103 weeks, study length 104 weeks); 1510 mg/kg/day (rat, strain Fischer 344, females, inhaled, site: kidney, lesion: tubule adenoma, dosed 103 weeks, study length 104 weeks); 7380 mg/kg/day (rat, strain Fischer 344, females, inhaled, site: kidney, lesion: tubule carcinoma, dosed 103 weeks, study length 104 weeks); 886 mg/kg/day (rat, strain Fischer 344, females, inhaled, site: liver, lesion: hemangiosarcoma, dosed 103 weeks, study length 104 weeks); 156 mg/kg/day (rat, strain Fischer 344, females, inhaled, site: liver, lesion: hepatocellular adenoma + hepatoblastoma + hepatocellular carcinoma, dosed 103 weeks, study length 104 weeks); 156 mg/kg/day (rat, strain Fischer 344, females, inhaled, site: liver, lesion: hepatocellular adenoma + hepatocellular carcinoma, dosed 103 weeks, study length 104 weeks). For the same compound, the TD50 was 528 mg/kg/day (rat, strain Fischer 344, females, inhaled, site: liver, lesion: hepatocellular adenoma, dosed 103 weeks, study length 104 weeks); 251 mg/kg/day (rat, strain Fischer 344, females, inhaled, site: liver, lesion: hepatocellular carcinoma, dosed 103 weeks, study length 104 weeks); 59.7 mg/kg/day (rat, strain Fischer 344, males, inhaled, site: all sites, lesion: mononuclear-cell leukemia, dosed 103 weeks, study length 104 weeks); 35.4 mg/kg/day (rat, strain Fischer 344, males, inhaled, site: any site (literature study), lesion: several types, types named in the paper, dosed 103 weeks, study length 104 weeks); 292 mg/kg/day and 367 mg/kg/day (rat, strain Fischer 344, males, inhaled, site: kidney, lesion: renal tubule adenoma, bilateral + tubule adenoma + tubule carcinoma, dosed 103 weeks, study length 104 weeks); 242 mg/kg/day and 334 mg/kg/day (rat, strain Fischer 344, males, inhaled, site: kidney, lesion: renal tubule adenoma, bilateral + tubule adenoma, dosed 103 weeks, study length 104 weeks). Further, the TD50 by setting is: (rat, strain Fischer 344, males, inhaled, site: liver, lesion: hepatocellular adenoma + hepatoblastoma + hepatocellular carcinoma, dosed 103 weeks, study length 104 weeks) 81.6 mg/kg/day; (rat, strain Fischer 344, males, inhaled, site: liver, lesion: hepatocellular adenoma + hepatocellular carcinoma, dosed 103 weeks, study length 104 weeks) 81.6 mg/kg/day; (rat, strain Fischer 344, males, inhaled, site: liver, lesion: hepatocellular adenoma, dosed 103 weeks, study length 104 weeks) 136 mg/kg/day; (rat, strain Fischer 344, males, inhaled, site: liver, lesion: hepatocellular carcinoma, dosed 103 weeks, study length 104 weeks) 163 mg/kg/day; (rat, strain Fischer 344, males, inhaled, site: testis, lesion: interstitial-cell adenoma, bilateral + interstitial-cell adenoma, dosed 103 weeks, study length 104 weeks) 27.5 mg/kg/day.

As to `O=C(O)CCC(=O)O`, the TD50 is 4820 mg/kg/day (inactive) (rat, strain F344/DuCrj, females, in drinking water, site: any site (literature study), lesion: one or several types, types not named, dosed 104 weeks, study length 113 weeks) and 54700 mg/kg/day (inactive) (rat, strain F344/DuCrj, males, in drinking water, site: liver, lesion: hepatocellular carcinoma, dosed 104 weeks, study length 113 weeks). Besides, the carcinogen call by setting is: (rat, strain F344/DuCrj, females, in drinking water, site: liver, lesion: one or several types, types not named, dosed 104 weeks, study length 113 weeks) “negative (inactive)”; (rat, strain F344/DuCrj, males, in drinking water, site: any site (literature study), lesion: one or several types, types not named, dosed 104 weeks, study length 113 weeks) “negative (inactive)”; (rat, strain F344/DuCrj, males, in drinking water, site: liver, lesion: hepatocellular adenoma, dosed 104 weeks, study length 113 weeks) “negative (inactive)”.

Regarding `ClCOCCl`, the TD50 reads like this: (mouse, strain Ha/ICR, females, i.p., site: abdomen, lesion: sarcoma, dosed 60 weeks, study length 60 weeks) 0.182 mg/kg/day; (mouse, strain Ha/ICR, males, inhaled, site: lung, lesion: adenoma, dosed 26 weeks, study length 108 weeks) 1.26 mg/kg/day; (mouse, strain Ha/ICR, males, inhaled, site: lung, lesion: several types, types named in the paper, dosed 26 weeks, study length 108 weeks) 1.16 mg/kg/day; (rat, strain Sprague-Dawley Spartan, males, inhaled, site: any site (literature study), lesion: several types, types named in the paper, dosed 26 weeks, study length 121 weeks) 0.00234 mg/kg/day; (rat, strain Sprague-Dawley Spartan, males, inhaled, site: lung, lesion: adenoma, dosed 26 weeks, study length 121 weeks) 0.196 mg/kg/day; (rat, strain Sprague-Dawley Spartan, males, inhaled, site: nasal passageway, lesion: carcinoma, dosed 26 weeks, study length 121 weeks) 0.795 mg/kg/day. The TD50 (rat, strain Sprague-Dawley Spartan, males, inhaled, site: nasal passageway, lesion: esthesioneuroepithelioma, dosed 26 weeks, study length 121 weeks) was 0.00357 mg/kg/day. Also, the carcinogen call by setting is: (mouse, strain Ha/ICR, males, inhaled, site: liver, lesion: hepatocellular carcinoma, dosed 26 weeks, study length 108 weeks) “negative (inactive)”; (mouse, strain Ha/ICR, males, inhaled, site: liver, lesion: several types, types named in the paper, dosed 26 weeks, study length 108 weeks) “negative (inactive)”; (rat, strain Sprague-Dawley Spartan, males, inhaled, site: liver, lesion: hepatocellular tumor, benign, dosed 26 weeks, study length 121 weeks) “negative (inactive)”.

Regarding `CC(=O)Nc1nc(NC(C)=O)nc(-c2ccc([N+](=O)[O-])o2)n1`, the TD50 reads like this: under setting [1], 12.8 mg/kg/day; under setting [2], 29 mg/kg/day; under setting [3], 14.1 mg/kg/day.

In the case of `Nc1nc(N)nc(-c2ccc([N+](=O)[O-])o2)n1`, the TD50 is, setting by setting: under setting [1], 1.71 mg/kg/day; under setting [2], 4.49 mg/kg/day; under setting [3], 1.71 mg/kg/day.

Usually TD50 stands for the 50% point of the dose-response relation for the toxic effect studied.
